Test results published in ChEMBL document CHEMBL1146317, “2-(2,2,2-Trifluoroethyl)-5,6-dichlorobenzimidazole derivatives as potent androgen receptor antagonists” (Bioorg Med Chem Lett, 2007).
Active and inactive are the calls of the source. The rule behind the calls is not given here.

Columns and labels:
[1] = organism: Rattus norvegicus; test: Inhibition of testoterone-induced prostate weight in castrated immature Sprague-Dawley rat at 2 mg/day relative to control; assay type: functional, Prostate gland; conditions: for Activity: Prostate gland
[2] = organism: Rattus norvegicus; test: Inhibition of testoterone-induced prostate weight in castrated immature Sprague-Dawley rat; assay type: functional, Prostate gland
[3] = organism: Rattus norvegicus; test: Toxicity in castrated immature Sprague-Dawley rat at 2 mg/day; conditions: in vivo
[4] = organism: Rattus norvegicus; test: Inhibition of testoterone-induced prostate weight in castrated immature Sprague-Dawley rat at 1 mg/day relative to control; assay type: functional, Prostate gland

SMILES	Inhibition [1] [%]	other results
FC(F)(F)Cc1nc2cc(Cl)c(Cl)cc2n1Cc1ccc(OC(F)(F)F)cc1	35	
OC(c1nc2cc(Cl)c(Cl)cc2n1Cc1ccccc1)C(F)(F)F (centres undefined)	49	
O=[N+]([O-])c1ccc(Cn2c(CC(F)(F)F)nc3cc(Cl)c(Cl)cc32)cc1	61	
Fc1cccc(OCCn2c(CC(F)(F)F)nc3cc(Cl)c(Cl)cc32)c1	22	
N#Cc1ccccc1Cn1c(CC(F)(F)F)nc2cc(Cl)c(Cl)cc21	74	
Fc1ccc(OCCn2c(CC(F)(F)F)nc3cc(Cl)c(Cl)cc32)cc1	40	
CC(O)(c1nc2cc(Cl)c(Cl)cc2[nH]1)C(F)(F)F (centres undefined)	74	
CCn1c(C(C)(O)C(F)(F)F)nc2cc(Cl)c(Cl)cc21 (centres undefined)		Activity [1]: inactive
COc1ccc(Cn2c(CC(F)(F)F)nc3cc(Cl)c(Cl)cc32)cc1	51	
FC(F)(F)Cc1nc2cc(Cl)c(Cl)cc2n1Cc1ccccc1Br	84	ID50 [2]: 0.38 mg/day
FC(F)(F)Cc1nc2cc(Cl)c(Cl)cc2n1Cc1ccc(C(F)(F)F)cc1	75	
O=[N+]([O-])c1cccc(Cn2c(CC(F)(F)F)nc3cc(Cl)c(Cl)cc32)c1	49	
COc1ccc(C(=O)Cn2c(CC(F)(F)F)nc3cc(Cl)c(Cl)cc32)c(OC)c1		Activity [1]: inactive
FC(F)(F)Cc1nc2cc(Cl)c(Cl)cc2n1Cc1ccc(Br)cc1	75	ID50 [2]: 0.13 mg/day
Fc1cccc(Cn2c(CC(F)(F)F)nc3cc(Cl)c(Cl)cc32)c1	55	
O=C(Cn1c(CC(F)(F)F)nc2cc(Cl)c(Cl)cc21)c1ccc([N+](=O)[O-])cc1	71	
O=C(Cn1c(CC(F)(F)F)nc2cc(Cl)c(Cl)cc21)c1cccs1	43	
FC(F)(F)Cc1nc2cc(Cl)c(Cl)cc2n1Cc1ccccc1Cl	90	ID50 [2]: 0.26 mg/day
N#Cc1ccc(Cn2c(CC(F)(F)F)nc3cc(Cl)c(Cl)cc32)cc1	68	
Fc1ccccc1Cn1c(CC(F)(F)F)nc2cc(Cl)c(Cl)cc21	77	ID50 [2]: 0.82 mg/day
FC(F)(F)Cc1nc2cc(Cl)c(Cl)cc2n1Cc1cccc(Cl)c1	35	
O=C(Cn1c(CC(F)(F)F)nc2cc(Cl)c(Cl)cc21)c1ccccn1	76	ID50 [2]: 0.47 mg/day
FC(F)(F)Cc1nc2cc(Cl)c(Cl)cc2n1Cc1ccccc1-c1ccncc1	42	
FC(F)(F)Cc1nc2cc(Cl)c(Cl)cc2n1Cc1ccccc1C(F)(F)F	86	

SMILES	Inhibition [1] [%]	other results
FC(F)(F)C(F)(F)c1nc2cc(Cl)c(Cl)cc2[nH]1		Activity [3]: Toxic
COc1ccccc1C(=O)Cn1c(CC(F)(F)F)nc2cc(Cl)c(Cl)cc21	10	
Fc1ccc(Cn2c(CC(F)(F)F)nc3cc(Cl)c(Cl)cc32)cc1	80	ID50 [2]: 0.19 mg/day
COc1cccc(Cn2c(CC(F)(F)F)nc3cc(Cl)c(Cl)cc32)c1		Activity [1]: inactive
COCn1c(C(C)(O)C(F)(F)F)nc2cc(Cl)c(Cl)cc21 (centres undefined)	88	
FC(F)(F)Cc1nc2cc(Cl)c(Cl)cc2[nH]1	90	
CCOC(=O)c1ccc(Cn2c(CC(F)(F)F)nc3cc(Cl)c(Cl)cc32)cc1	56	
CCC(=O)Cn1c(CC(F)(F)F)nc2cc(Cl)c(Cl)cc21	64	
OC(c1nc2cc(Cl)c(Cl)cc2n1Cc1ccccn1)C(F)(F)F (centres undefined)	84	
CS(=O)(=O)c1ccc(Cn2c(CC(F)(F)F)nc3cc(Cl)c(Cl)cc32)cc1	32	
OC(O)(c1nc2cc(Cl)c(Cl)cc2[nH]1)C(F)(F)F	94	
Oc1ccc(Cn2c(CC(F)(F)F)nc3cc(Cl)c(Cl)cc32)cc1	28	
O=C(Cn1c(CC(F)(F)F)nc2cc(Cl)c(Cl)cc21)c1ccc(Cl)cc1	33	
FC(F)(F)Cc1nc2cc(Cl)c(Cl)cc2n1Cc1ccc(C(F)(F)F)cc1C(F)(F)F	13	
N#Cc1ccc(OCCn2c(CC(F)(F)F)nc3cc(Cl)c(Cl)cc32)cc1	86	
Cc1ccccc1Cn1c(CC(F)(F)F)nc2cc(Cl)c(Cl)cc21	73	
OC(c1nc2cc(Cl)c(Cl)cc2[nH]1)C(F)(F)F (centres undefined)	96	
FC(F)(F)Cc1nc2cc(Cl)c(Cl)cc2n1Cc1ccccn1	89	
FC(F)(F)Cc1nc2cc(Cl)c(Cl)cc2n1Cc1ccc(SC(F)(F)F)cc1	13	
O=C(Cn1c(CC(F)(F)F)nc2cc(Cl)c(Cl)cc21)c1ccc(Br)cc1	27	
FC(F)(F)Cc1nc2cc(Cl)c(Cl)cc2n1Cc1ccccc1-c1ccccc1	79	ID50 [2]: 0.55 mg/day
FC(c1nc2cc(Cl)c(Cl)cc2[nH]1)C(F)(F)F (centres undefined)		Inhibition [4]: 81%
FC(F)(F)Cc1nc2cc(Cl)c(Cl)cc2n1Cc1ccccc1-c1ccccn1	89	ID50 [2]: 0.4 mg/day
O=C(Cn1c(CC(F)(F)F)nc2cc(Cl)c(Cl)cc21)c1cccnc1		Activity [1]: inactive

SMILES	Inhibition [1] [%]	other results
FC(F)(F)Cc1nc2cc(Cl)c(Cl)cc2n1Cc1ccccc1-c1cccnc1	80	
FC(F)(F)Cc1nc2cc(Cl)c(Cl)cc2n1Cc1cccc(C(F)(F)F)c1	74	ID50 [2]: 0.4 mg/day
Fc1c(F)c(F)c(Cn2c(CC(F)(F)F)nc3cc(Cl)c(Cl)cc32)c(F)c1F	19	
FC(F)(F)Cc1nc2cc(Cl)c(Cl)cc2n1CCOc1ccc(Cl)cc1	48	
COc1cccc(C(=O)Cn2c(CC(F)(F)F)nc3cc(Cl)c(Cl)cc32)c1		Activity [1]: inactive
O=C(Cn1c(CC(F)(F)F)nc2cc(Cl)c(Cl)cc21)c1ccccc1	38	
CC(O)(CS(=O)(=O)c1ccc(F)cc1)C(=O)Nc1ccc(C#N)c(C(F)(F)F)c1 (centres undefined) [BICALUTAMIDE]	70	ID50 [2]: 0.23 mg/day
O=[N+]([O-])c1ccccc1Cn1c(CC(F)(F)F)nc2cc(Cl)c(Cl)cc21	81	ID50 [2]: 0.95 mg/day
FC(F)(F)Cc1nc2cc(Cl)c(Cl)cc2n1Cc1ccc(OCc2ccccc2)cc1	46	
O=C(Cn1c(CC(F)(F)F)nc2cc(Cl)c(Cl)cc21)c1cccc([N+](=O)[O-])c1	14	
FC(F)(F)Cc1nc2cc(Cl)c(Cl)cc2n1Cc1ccc(Cl)cc1	77	ID50 [2]: 0.28 mg/day
O=S(=O)(Cc1ccccc1Cn1c(CC(F)(F)F)nc2cc(Cl)c(Cl)cc21)c1ccccc1	74	
FC(F)(F)Cc1nc2cc(Cl)c(Cl)cc2n1Cc1cccc(OC(F)(F)F)c1	26	
COc1ccccc1Cn1c(CC(F)(F)F)nc2cc(Cl)c(Cl)cc21	51	
Cc1cccc(Cn2c(CC(F)(F)F)nc3cc(Cl)c(Cl)cc32)c1	31	
CC(O)(c1nc2cc(Cl)c(Cl)cc2n1CC#N)C(F)(F)F (centres undefined)	54	
OC(O)(c1nc2cc(Cl)c(Cl)cc2n1Cc1ccccc1)C(F)(F)F	85	
Cn1c(C(C)(O)C(F)(F)F)nc2cc(Cl)c(Cl)cc21 (centres undefined)		Activity [1]: inactive
FC(F)(F)Cc1nc2cc(Cl)c(Cl)cc2n1Cc1ccccc1	79	ID50 [2]: 0.37 mg/day
O=C(O)c1ccc(Cn2c(CC(F)(F)F)nc3cc(Cl)c(Cl)cc32)cc1	38	
OCCn1c(CC(F)(F)F)nc2cc(Cl)c(Cl)cc21	54	
N#Cc1cccc(Cn2c(CC(F)(F)F)nc3cc(Cl)c(Cl)cc32)c1	70	
O=C(Cn1c(CC(F)(F)F)nc2cc(Cl)c(Cl)cc21)c1ccc(F)cc1	67	
